Test system: murine dermal fibroblasts
Experiment: RNA-Seq of newborn murine dermal fibroblasts
Format: cell-based, mouse
Conditions: 10^−7 M, 24 h; for number of genes solely downregulated / number of genes solely upregulated: FC ≥ 2
Experimental: All animal studies followed guidelines outlined by the NIH Guide for the Care and Use of Laboratory Animals and protocols were approved by the Institutional Animal Care and Use Committee at the NIEHS or the UAB. […] Skin samples from newborn C57BL/6 mice were collected at the NIEHS. Dermal fibroblasts were isolated from the skin of newborn mice, 1–2 day old. Briefly, we followed the protocols described previously. The skin was washed in PBS, cut into smaller pieces and incubated in 2.4 U/ml of dispase II (Roche) overnight at 4 °C. The dermis was separated from the epidermis and incubated in 0.1% collagenase (Roche) at 4 °C overnight. […] Single cell suspension was prepared by pipetting and draining through a cell strainer. After centrifugation, cell pellets were suspended in DMEM medium containing 10% charcoal-stripped fetal bovine serum (cFBS), mouse fibroblasts growth factor (FGF) and 1% antibiotic, and inoculated into tissue culture dishes (Midwest Scientific, TPP). Cells, in early passages, from different mice were pooled together to provide representative samples for experiments. Fibroblasts were cultured in Petri dishes (10 cm in diameter) in DMEM and 10% cFBS and triplicate semi-confluent cultures were treated as described.
Triplicate cultures of murine fibroblasts were used for RNA isolation (RNAeasy Micro kit, Qiagen), the RNA samples were combined for each condition and at least 200 ng of RNA for each sample was used to create libraries for RNA sequencing by BGI Americas Corporation Service (Cambridge, MA)[67]. Quality of RNA and its concentration were determined using Agilent 2100.
The raw sequence FASTQ files were aligned to Gencode’s GRCm38 p4 Release M11 genome using STAR version 2.5.4b (parameters used: –outReadsUnmapped Fastx; –outSAMtype BAM SortedByCoordinate; –outSAMattributes All; –outFilterIntronMotifs RemoveNoncanonicalUnannotated)[69]. The abundance of transcripts was calculated from the alignments using Cufflinks version 2.2.1 (parameters used: –G; –L; –library-type fr-firststrand). Samples were merged using default parameters with Cuffmerge[70],[71]. The differential expression was calculated using Cuffdiff’s default parameters. The raw data have been deposited at the NCBI GEO (GSE145818).

Question: How did the Adh7 expression level turn out when `C=C1/C(=C\C=C2/CCC[C@]3(C)[C@@H]([C@H](C)CCCC(C)(C)O)CC[C@@H]23)C[C@@H](O)C[C@@H]1O` [1,25(OH)2D3, reference compound] was run?
Answer: 1.042

Question: And the Aqp11 expression level?
Answer: 0.9562

Question: What about the Arid3b expression level of the same molecule?
Answer: 1.268

Question: And the Bicd1 expression level?
Answer: 0.7304

Question: What about the Btc expression level of the same molecule?
Answer: 0.9514

Question: What about the Car9 expression level of the same molecule?
Answer: 3.341

Question: What about the Cbs expression level of the same molecule?
Answer: 0.4189

Question: What about the Ccl4 expression level of the same molecule?
Answer: 0

Question: What about the Cd68 expression level of the same molecule?
Answer: 5.274

Question: And the Cd200 expression level?
Answer: 0.3998

Question: What about the Cherp expression level of the same molecule?
Answer: 35.1454

Question: And the Clec2g expression level?
Answer: 0

Question: What about the Cnnm4 expression level of the same molecule?
Answer: 11.9457

Question: And the Cox15 expression level?
Answer: 15.3542

Question: What about the Cpa2 expression level of the same molecule?
Answer: 0.3127

Question: And the Ctrl expression level?
Answer: 0.3422

Question: And the Dcun1d1 expression level?
Answer: 6.457

Question: And the Defb42 expression level?
Answer: 0.2302

Question: And the Dtx1 expression level?
Answer: 0.2518

Question: What about the Ehf expression level of the same molecule?
Answer: 0.2831

Question: What about the Ercc2 expression level of the same molecule?
Answer: 13.8618

Question: And the Erh expression level?
Answer: 2.728

Question: And the Fmnl1 expression level?
Answer: 0.04415

Question: And the Gys2 expression level?
Answer: 0

Question: And the Hist1h2ab expression level?
Answer: 1.144

Question: And the Hist1h2bg expression level?
Answer: 0.5636

Question: What about the Hist1h2bh expression level of the same molecule?
Answer: 0

Question: What about the Hist1h4c expression level of the same molecule?
Answer: 0

Question: What about the Isl1 expression level of the same molecule?
Answer: 0.2249

Question: What about the Krt19 expression level of the same molecule?
Answer: 14.9744

Question: What about the Larp1b expression level of the same molecule?
Answer: 2.787

Question: And the Lhx6 expression level?
Answer: 3.883

Question: And the Lsm5 expression level?
Answer: 0.9896

Question: What about the M1ap expression level of the same molecule?
Answer: 1.719

Question: And the Med9os expression level?
Answer: 0.7826

Question: What about the Nckipsd expression level of the same molecule?
Answer: 15.4716

Question: And the Nr3c2 expression level?
Answer: 0.1558

Question: And the Nr6a1 expression level?
Answer: 0.3582

Question: What about the Ntrk3 expression level of the same molecule?
Answer: 0

Question: What about the Parvg expression level of the same molecule?
Answer: 0.1595

Question: And the Pde4dip expression level?
Answer: 20.1604

Question: What about the Psd4 expression level of the same molecule?
Answer: 0.7259

Question: And the Ptpa expression level?
Answer: 235.847

Question: What about the Ptpn6 expression level of the same molecule?
Answer: 2.532

Question: And the Rnu3a expression level?
Answer: 0

Question: What about the Rpph1 expression level of the same molecule?
Answer: 0.655

Question: What about the Rsad1 expression level of the same molecule?
Answer: 1.447

Question: What about the Saa1 expression level of the same molecule?
Answer: 0.19

Question: And the Samd12 expression level?
Answer: 0.7427

Question: What about the Scn8a expression level of the same molecule?
Answer: 0.3603

Question: And the Sgca expression level?
Answer: 0.3791

Question: And the Slc15a4 expression level?
Answer: 20.8062

Question: And the Slc16a5 expression level?
Answer: 0.1731

Question: What about the Snhg9 expression level of the same molecule?
Answer: 3.721

Question: And the St7 expression level?
Answer: 31.903

Question: And the Stmn1 expression level?
Answer: 3.691

Question: What about the Susd1 expression level of the same molecule?
Answer: 2.151

Question: What about the Syt8 expression level of the same molecule?
Answer: 1.517

Question: What about the Syt12 expression level of the same molecule?
Answer: 0.9903

Question: And the Tldc2 expression level?
Answer: 0.381

Question: What about the Tnnc2 expression level of the same molecule?
Answer: 0

Question: What about the Unc5c expression level of the same molecule?
Answer: 0.3264

Question: What about the Wdr17 expression level of the same molecule?
Answer: 0.7213

Question: And the Zbtb18 expression level?
Answer: 5.623

Question: What about the Zfp618 expression level of the same molecule?
Answer: 1.668

Question: And the “number of genes downregulated, FC ≥ 2” value?
Answer: 566

Question: What about the “number of genes upregulated, FC ≥ 2” value of the same molecule?
Answer: 601

Question: What about the “number of genes solely downregulated” value of the same molecule?
Answer: 159 (15%)

Question: And the “number of genes solely upregulated” value?
Answer: 322 (21.4%)

Question: What does the source list for `CC(C)CCC[C@](C)(O)[C@H]1CC[C@H]2[C@@H]3CC=C4C[C@@H](O)CC[C@]4(C)[C@H]3CC[C@@]21C` [20(OH)C, 20-hydroxycholesterol, reference compound]?
Answer: Adh7 expression level: 0.7754; Adh7 log2(fold_change) vs control: 1.595; Aqp11 expression level: 0.8073; Aqp11 log2(fold_change) vs control: 1.853; Arid3b expression level: 0.9108; Arid3b log2(fold_change) vs control: -1.9; Bicd1 expression level: 0.39; Bicd1 log2(fold_change) vs control: -2.453; Btc expression level: 1.112; Btc log2(fold_change) vs control: 2.1992; Car9 expression level: 1.738; Car9 log2(fold_change) vs control: -2.435; Cbs expression level: 0.5333; Cbs log2(fold_change) vs control: -1.867; Ccl4 expression level: 0.1695; Ccl4 log2(fold_change) vs control: -2.322; Cd68 expression level: 2.992; Cd68 log2(fold_change) vs control: 1.391; Cd200 expression level: 0.446; Cd200 log2(fold_change) vs control: -1.664; Cherp expression level: 31.8463; Cherp log2(fold_change) vs control: -2.536; Clec2g expression level: 0; Clec2g log2(fold_change) vs control: -inf; Cnnm4 expression level: 3.864; Cnnm4 log2(fold_change) vs control: -3.699; Cox15 expression level: 14.0674; Cox15 log2(fold_change) vs control: 1.269; Cpa2 expression level: 0.3139; Cpa2 log2(fold_change) vs control: -2.322; Ctrl expression level: 0.4557; Ctrl log2(fold_change) vs control: -1.16; Dcun1d1 expression level: 3.938; Dcun1d1 log2(fold_change) vs control: -1.746; Defb42 expression level: 0.3618; Defb42 log2(fold_change) vs control: -1.335; Dtx1 expression level: 0.6172; Dtx1 log2(fold_change) vs control: -1.429; Ehf expression level: 0.3171; Ehf log2(fold_change) vs control: -1.391; Ercc2 expression level: 15.1049; Ercc2 log2(fold_change) vs control: -3.489; Erh expression level: 1.52; Erh log2(fold_change) vs control: -2.047; Fmnl1 expression level: 0.0589; Fmnl1 log2(fold_change) vs control: -3.9854; Gys2 expression level: 0; Gys2 log2(fold_change) vs control: -inf; Hist1h2ab expression level: 1.148; Hist1h2ab log2(fold_change) vs control: 2; Hist1h2bg expression level: 0.5658; Hist1h2bg log2(fold_change) vs control: -2; Hist1h2bh expression level: 0; Hist1h2bh log2(fold_change) vs control: -inf; Hist1h4c expression level: 0.4039; Hist1h4c log2(fold_change) vs control: -1; Isl1 expression level: 0.3429; Isl1 log2(fold_change) vs control: -1.227; Krt19 expression level: 12.2793; Krt19 log2(fold_change) vs control: 1.279; Larp1b expression level: 3.613; Larp1b log2(fold_change) vs control: -2.853; Lhx6 expression level: 2.203; Lhx6 log2(fold_change) vs control: -2.404; Lsm5 expression level: 0.8846; Lsm5 log2(fold_change) vs control: -1.59; M1ap expression level: 2.484; M1ap log2(fold_change) vs control: 2.0059; Med9os expression level: 0.3191; Med9os log2(fold_change) vs control: -2.7; Nckipsd expression level: 8.765; Nckipsd log2(fold_change) vs control: 1.073; Nr3c2 expression level: 0.1285; Nr3c2 log2(fold_change) vs control: -3.098; Nr6a1 expression level: 0.3735; Nr6a1 log2(fold_change) vs control: -2.304; Ntrk3 expression level: 0.3696; Ntrk3 log2(fold_change) vs control: -2.33; Parvg expression level: 0.09605; Parvg log2(fold_change) vs control: -3.946; Pde4dip expression level: 20.5427; Pde4dip log2(fold_change) vs control: -7.578; Psd4 expression level: 0.1792; Psd4 log2(fold_change) vs control: -3.129; Ptpa expression level: 149.828; Ptpa log2(fold_change) vs control: 1.1778; Ptpn6 expression level: 1.723; Ptpn6 log2(fold_change) vs control: -2.798; Rnu3a expression level: 0; Rnu3a log2(fold_change) vs control: -inf; Rpph1 expression level: 0.6576; Rpph1 log2(fold_change) vs control: -1; Rsad1 expression level: 1.413; Rsad1 log2(fold_change) vs control: -1.15; Saa1 expression level: 0.1908; Saa1 log2(fold_change) vs control: -2.322; Samd12 expression level: 0.5476; Samd12 log2(fold_change) vs control: -2.717; Scn8a expression level: 0.2978; Scn8a log2(fold_change) vs control: -1.43; Sgca expression level: 0.3806; Sgca log2(fold_change) vs control: -1.697; Slc15a4 expression level: 13.0176; Slc15a4 log2(fold_change) vs control: -2.132; Slc16a5 expression level: 0.4564; Slc16a5 log2(fold_change) vs control: -1.015; Snhg9 expression level: 7.471; Snhg9 log2(fold_change) vs control: -1.322; St7 expression level: 21.7063; St7 log2(fold_change) vs control: -1.667; Stmn1 expression level: 6.2905; Stmn1 log2(fold_change) vs control: 2.02; Susd1 expression level: 2.158; Susd1 log2(fold_change) vs control: 1.637; Syt8 expression level: 0.2562; Syt8 log2(fold_change) vs control: -3.638; Syt12 expression level: 1.318; Syt12 log2(fold_change) vs control: -1.636; Tldc2 expression level: 0; Tldc2 log2(fold_change) vs control: -inf; Tnnc2 expression level: 0.1558; Tnnc2 log2(fold_change) vs control: -2.361; Unc5c expression level: 0.4963; Unc5c log2(fold_change) vs control: -1.133; Wdr17 expression level: 0.677; Wdr17 log2(fold_change) vs control: -1.73; Zbtb18 expression level: 5.289; Zbtb18 log2(fold_change) vs control: -3.07; Zfp618 expression level: 2.236; Zfp618 log2(fold_change) vs control: -1.093; number of genes downregulated, FC ≥ 2: 498; number of genes upregulated, FC ≥ 2: 564; number of genes solely downregulated: 109 (10.3%); number of genes solely upregulated: 291 (19.4%)
